Data from patent US8815946B2, “Inhibition of proliferation and fibrotic response of activated corneal stromal cells” (University of Pittsburgh—of the Commonwealth System of …, priority 2008, dated 2014).

Assays:
[1] = tested on: fibronectin; test: Immunocytochemical analysis of fibronectin expression, human stromal cells; format: cell-based; settings: human corneal cells treated with TGF-β1
Description: (§1) FIGS. 6A-6B. Immunocytochemical analysis of fibronectin expression. Normal human stromal cells (FIG. 6A) or rabbit corneal stromal cells (FIG. 6B) in P2 growing in DMEM/F12 with 10% FBS were subcultured into 35 mm tissue culture dishes. After 24 hrs of incubation, the media were replaced with DMEM/F12 medium containing 1% FBS and TGF-β1 with or without (control) 10 mM EP and incubated for four days (media were changed every 24 hours). The cells were fixed and double stained for fibronectin (green) and phalloidin (red) using an indirect fluorescence technique as described herein.
(§2) For immunocytochemical analyses, the cells were cultured on glass cover slips or tissue culture dishes. Cells were rinsed with phosphate-buffered saline (PBS), fixed with paraformaldehyde-lysine-periodate and permeabilized with PIPES buffer containing 0.2% Triton X-100, as described previously (Guerriero et al., Invest. Opthalmol. Vis. Sci. 2007; 48: 627-635). Fixed and permeabilized cells were reacted with 10% heat-inactivated goat serum in PBS, pH 7.5, for 45 minutes to block the nonspecific binding of the secondary antibody, rinsed with PBS, and then treated with the primary and secondary antibodies as described previously (Guerriero et al. Invest. Opthalmol. Vis. Sci. 2007; 48: 627-635). Primary antibodies included monoclonal rat anti-α smooth muscle actin (SMA) and anti-fibronectin. […]

[2] = tested on: CD-45+ leukocytes; test: Mouse corneal wound model, FACS with pan-leukocyte marker CD-45+; format: in vivo, Mus musculus strain C57
Text: A mouse model of corneal wound healing and inflammation induced by lipopolysacharide (LPS) was used to test the effect of EP. Khatari et al., Invest. Opthalmol. Vis. Sci. (2002) 43:2278-2284. Briefly, mice (Mus musculus strain C57, age approx. 2 months) were obtained from Charles River Laboratories in accordance with institutional protocols and divided into the following treatment groups (with 3 samples in each group):
Prior to wounding, all mice were anesthetized with an intraperitoneal injection of 50 mg/kg ketamine with 5 mg/kg xylazine. Topical anesthesia was further achieved with an additional 1 drop of 0.5% proparacaine per eye. Once the animal was sufficiently anesthetized, a corneal wound was constructed in each eye using a sterile 26-gauge needle that penetrated the epithelium and the superficial layers of the stroma. This linear scratch extended from the medial to lateral canthus (FIG. 12). 10 μg of the bacterial super-antigen LPS (Pseudomonas aeruginosa lipopolysaccharide, Sigma) was applied to the wound using a 10 μl pipette and allowed to penetrate the cornea for 5 minutes. Addition of bacterial endotoxin ensured a robust inflammatory response.
The wound was then washed with phosphate buffered saline (PBS/non-pyrogenic dH2O). […] The delivery and concentration of EP was determined according to Devamanoharan et al. (1999); 200(1-2):103-09. […]

[3] = tested on: cellular fibronectin; test: Western blot analyses of cellular fibronectin, human corneal stromal cells; format: cell-based; settings: TGF-β1, two and four days
Description: FIG. 7. Western blot analyses of cellular fibronectin. Human corneal stromal cells in P2 growing in DMEM/F12 with 10% FBS were subcultured into 60 mm tissue culture dishes. After 24 hrs of incubation, the media were replaced with DMEM/F12 medium containing 1% FBS and TGF-β1 with or without (control) different EP concentrations as indicated and incubated for two and four days (media were changed every 24 hours). The cells were extracted in RIPA buffer and the extracts containing 5 μg of total proteins were loaded per lane for Western blot analysis.
Keratocytes or fibroblasts grown under different culture conditions were extracted in RIPA buffer (9.1 mM dibasic sodium phosphate, 1.7 mM monobasic sodium phosphate, 150 mM NaCl, pH, 7.4, 1% Nonidet P-40, 0.5% sodium deoxycholate, 0.1% SDS, 0.03 TIU/mL aprotinin, 1 mM sodium orthovanadate, and 100 μg/mL phenylmethylsulfonyl fluoride (PMSF)). Aliquots of cell extracts containing 50 or 100 μg protein were subjected to SDS-PAGE. […] Immunoreactive bands were detected using chemiluminescence Western chemiluminescence reagents. […]

[4] = tested on: α-SMA; test: Immunocytochemical analysis of α-SMA expression, rabbit corneal stromal cells; format: cell-based; settings: 10 mM EP
Description: as §1, with “FIG. 4.” for “FIGS. 6A-6B.”, “α-SMA” for “fibronectin”, “Rabbit” for “Normal human stromal cells (FIG. 6A) or rabbit”, “cells” for “cells (FIG. 6B)”, “and” for “and double”, “(green)” for “(green) and phalloidin (red)”
as §2

[5] = tested on: fibronectin; test: Immunocytochemical analysis of fibronectin expression, rabbit corneal stromal cells; format: cell-based; settings: rabbit corneal cells treated with TGF-β1
Description: as §1, §2

## CCOC(=O)C(C)=O [ethyl pyruvate]
[1]
  fibronectin deposition in the matrix (immunocytochemical): concentration dependent downregulation
[2]; day 1 post-wounding
  inflammatory cells (CD-45+) by FACS: 28.50±12.02
[2]; day 2 post-wounding
  inflammatory cells (CD-45+) by FACS: 163.00±57.42
[3]
  downregulation of fibronectin by Western blot of cell extracts (including the matrix): confirmed
[4]
  TGF-β1 induced expression of α-SMA (immunocytochemical): downregulated
[5]
  fibronectin deposition in the matrix (immunocytochemical): concentration dependent downregulation
